The values that follow come from ChEMBL document CHEMBL1201862, “PubChem BioAssay data set” (2004).

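Growth conditions: 96-well plates. Treatment: test compound, 48 hours, 5 concentrations. Analysis: linear interpolation between bracketing concentrations; unreached endpoints set to highest concentration. Abbreviation: GI50, concentration required for 50% inhibition of growth.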 Calls of active or inactive are those of the source. Cut-off read from the data, not from the text of the source: active = GI50 up to about 1.1 µM and inactive = higher. Some results are limits rather than exact numbers.

Test systems include CAKI-1; DU-145; HCT-116; HCT-15; HT-29; Hs-578T; MCF7; Malme-3M; NCI-H226; NCI-H23; NCI-H522; OVCAR-8; SK-OV-3; SN12C; SW-620; U-251; UACC-62; HCC 2998; MDA-N; SK-MEL-28.
Holding throughout (assay): NCI-60 cell line screen, 48 h

Turning to `Cn1c2c(c3c(=O)[nH]ncc31)CCCc1ccccc1-2`, the GI50 with CAKI-1 is 21.8 µM (inactive); in the experiment with DU-145, 37.9 µM (inactive); with HCT-116, 18.1 µM (inactive); in the experiment on HCT-15, 29.8 µM; in the experiment on HT-29 it was 28.4 µM (inactive); in the experiment with Hs-578T, 20.9 µM (inactive). Moreover, the GI50 in the experiment on MCF7 is 25 µM (inactive); in the experiment with Malme-3M, 22.5 µM (inactive); in the experiment on NCI-H226 it was 27.2 µM (inactive); in the experiment on NCI-H23 it was 37.7 µM (inactive); in the experiment on NCI-H522, 18.2 µM (inactive); in the experiment on OVCAR-8, 24.9 µM (inactive). For the same compound, the GI50 was 25.7 µM (inactive) in the experiment with SK-OV-3; 25.6 µM (inactive) in the experiment on SN12C; 34.3 µM (inactive) in the experiment with SW-620; 27.9 µM (inactive) with U-251; 28.7 µM (inactive) in the experiment with UACC-62.
With `COc1cc(C2c3cc4c(cc3[C@@H](Nc3ccc(F)cc3)C3COC(=O)[C@H]23)OCO4)cc(OC)c1O` (stereo not given in full), the GI50 was 0.514 µM (active) in the experiment with CAKI-1; 0.368 µM (active) in the experiment with DU-145; 3.28 µM (inactive) in the experiment with HCC 2998; 2.77 µM (inactive) in the experiment with HCT-116; 3.56 µM in the experiment on HCT-15; 3.41 µM (inactive) with HT-29. Further, the GI50 in the experiment with MCF7 is 0.408 µM (active); with MDA-N, 8.93 µM (inactive); in the experiment on Malme-3M it was 2.48 µM (inactive); in the experiment on NCI-H226, 0.897 µM (active); in the experiment on NCI-H23 it was 1.3 µM (inactive); with NCI-H522 it was 2.88 µM (inactive). Besides, the GI50 in the experiment on OVCAR-8 was 2.53 µM (inactive); with SK-MEL-28, 7.69 µM (inactive); in the experiment on SK-OV-3 it was 3.45 µM (inactive); in the experiment with SN12C, 1.57 µM (inactive); in the experiment on SW-620 it was 1.69 µM (inactive); with U-251, 1.09 µM (active). Also, the GI50 with UACC-62 is 0.841 µM (active).
`NS(=O)(=O)c1nnc(NC(=S)NC(=O)Nc2ccc(Cl)c(Cl)c2)s1`: the GI50 with CAKI-1 was 23.4 µM (inactive); in the experiment on DU-145, 20.8 µM (inactive); in the experiment on HCT-116 it was 16.9 µM (inactive); in the experiment with HCT-15 it was 19.7 µM; in the experiment with HT-29 it was 25.5 µM (inactive); in the experiment with Hs-578T, 24.3 µM (inactive). Further, the GI50 in the experiment with MCF7 is 38 µM (inactive); in the experiment on Malme-3M, 22.6 µM (inactive); with NCI-H226, 23.9 µM (inactive); with NCI-H23, 18.1 µM (inactive); with NCI-H522, 14.8 µM (inactive); in the experiment with OVCAR-8 it was 22.1 µM (inactive). Further, the GI50 was 37.1 µM (inactive) with SK-MEL-28; 20.7 µM (inactive) with SK-OV-3; 26.7 µM (inactive) with SN12C; 22.5 µM (inactive) with SW-620; 36.3 µM (inactive) in the experiment with U-251; 17.5 µM (inactive) in the experiment on UACC-62.
With `CN1CN(c2ccccc2)C2(CCN(Cc3nc4ccccc4s3)CC2)C1=O`, the GI50 in the experiment on CAKI-1 is 20.1 µM (inactive); in the experiment with DU-145, 17.9 µM (inactive); in the experiment with HCT-116 it was 14.8 µM (inactive); with HCT-15 it was 18.8 µM; with HT-29, 17 µM (inactive); in the experiment with Hs-578T, 18.7 µM (inactive). Besides, the GI50 with MCF7 is 15.7 µM (inactive); with Malme-3M it was 17.8 µM (inactive); with NCI-H226, 16.4 µM (inactive); with NCI-H23 it was 18.1 µM (inactive); in the experiment on OVCAR-8, 14.4 µM (inactive); in the experiment with SK-MEL-28, 17.3 µM (inactive). For the same compound, the GI50 is 22.2 µM (inactive) in the experiment on SK-OV-3, 17.5 µM (inactive) in the experiment with SN12C, 16.1 µM (inactive) in the experiment on U-251 and 16 µM (inactive) in the experiment with UACC-62.
Regarding `COc1cc(/C=C2\C(=O)N(c3cccc([N+](=O)[O-])c3)C(c3ccccc3)S2(=O)=O)cc(OC)c1OC` (stereo not given), the GI50 in the experiment on CAKI-1 is > 100 µM (inactive); in the experiment with DU-145 it was > 100 µM (inactive); in the experiment with HCC 2998, > 100 µM (inactive); with HCT-116, > 100 µM (inactive); with HCT-15 it was greater than 100 µM; in the experiment with HT-29, > 100 µM (inactive). The GI50 in the experiment on MCF7 is 39.7 µM (inactive); in the experiment on MDA-N, 31.1 µM (inactive); with Malme-3M, > 100 µM (inactive); in the experiment on NCI-H226, > 100 µM (inactive); in the experiment with NCI-H23, > 100 µM (inactive); in the experiment with NCI-H522, > 100 µM (inactive). Further, the GI50 in the experiment with OVCAR-8 was > 100 µM (inactive); in the experiment with SK-MEL-28 it was > 100 µM (inactive); in the experiment with SK-OV-3 it was > 100 µM (inactive); in the experiment on SN12C, > 100 µM (inactive); with SW-620, 94.4 µM (inactive); with U-251, > 100 µM (inactive). Moreover, the GI50 with UACC-62 is 80.7 µM (inactive).
Turning to `O=C(CNCc1ccccc1)Oc1c(Cl)c(Cl)c(Cl)c(Cl)c1Cl`, the GI50 in the experiment with CAKI-1 was 25.3 µM (inactive); with DU-145 it was 15.9 µM (inactive); in the experiment with HCC 2998, 22.8 µM (inactive); with HCT-116 it was > 100 µM (inactive); in the experiment with HCT-15, 25.4 µM; with HT-29 it was 32.7 µM (inactive). Also, the GI50 in the experiment with Hs-578T was 17.3 µM (inactive); with MCF7 it was 38.5 µM (inactive); in the experiment on Malme-3M it was 26 µM (inactive); in the experiment on NCI-H226, 28.4 µM (inactive); with NCI-H23 it was > 100 µM (inactive); in the experiment with NCI-H522 it was 25.3 µM (inactive). The GI50 in the experiment on OVCAR-8 is 21.4 µM (inactive); in the experiment on SK-MEL-28 it was 38.5 µM (inactive); in the experiment on SK-OV-3, 47 µM (inactive); with SN12C it was 31.2 µM (inactive); in the experiment with SW-620 it was 32.5 µM (inactive); in the experiment on U-251 it was 28.5 µM (inactive). The GI50 with UACC-62 is 21.5 µM (inactive).
As for `Cc1ccc(/C(Cl)=C/C=C(C#N)C#N)cc1`, the GI50 in the experiment on CAKI-1 is 3.64 µM (inactive); with DU-145, 11.3 µM (inactive); in the experiment with HCT-116, 1.83 µM (inactive); in the experiment with HCT-15, 2.1 µM; in the experiment on HT-29, 2.59 µM (inactive); in the experiment on Hs-578T, 2.16 µM (inactive). Further, the GI50 was 30.4 µM (inactive) with MCF7; 3.85 µM (inactive) in the experiment with Malme-3M; 4.39 µM (inactive) in the experiment with NCI-H226; 1.76 µM (inactive) with NCI-H23; 1.98 µM (inactive) with NCI-H522; 3.16 µM (inactive) in the experiment with OVCAR-8. Besides, the GI50 in the experiment on SK-MEL-28 is 2.14 µM (inactive); in the experiment on SK-OV-3, 5.78 µM (inactive); in the experiment with SN12C, 3.72 µM (inactive); in the experiment on SW-620, 1.91 µM (inactive); with U-251, 4.18 µM (inactive); in the experiment on UACC-62, 4.51 µM (inactive).
Consider `CC(=O)/C(=C\NC(=S)Nc1ccc(S(N)(=O)=O)cc1)C(=O)Nc1ccccc1C`, for which the GI50 is 37.8 µM (inactive) in the experiment on CAKI-1; 57.7 µM (inactive) with DU-145; 54.8 µM (inactive) in the experiment with HCC 2998; 40.5 µM (inactive) in the experiment with HCT-116; 41.3 µM in the experiment with HCT-15; 45.2 µM (inactive) in the experiment on HT-29. Also, the GI50 in the experiment on Hs-578T is 61.8 µM (inactive); in the experiment on MCF7 it was 40.7 µM (inactive); in the experiment on NCI-H226, 60.3 µM (inactive); in the experiment with NCI-H23 it was 71.3 µM (inactive); with NCI-H522 it was 41.7 µM (inactive); in the experiment on OVCAR-8, 72.9 µM (inactive). For the same compound, the GI50 is 34.2 µM (inactive) with SK-OV-3; 71 µM (inactive) in the experiment on SN12C; 37.4 µM (inactive) with SW-620; 45 µM (inactive) in the experiment with U-251; 35.2 µM (inactive) in the experiment on UACC-62.
`CC1(C)OC2C(O)CN3CCS[C@H]3C2O1` (stereo not given in full): the GI50 in the experiment on CAKI-1 is > 100 µM (inactive); in the experiment on DU-145 it was > 100 µM (inactive); in the experiment on HCC 2998, > 100 µM (inactive); in the experiment with HCT-116, > 100 µM (inactive); in the experiment on HCT-15, greater than 100 µM; in the experiment with HT-29, > 100 µM (inactive). Also, the GI50 with Hs-578T, with Malme-3M, in the experiment on NCI-H226, in the experiment on NCI-H23, with NCI-H522 and in the experiment on OVCAR-8 was > 100 µM (inactive) in each case. The GI50 in the experiment with SK-MEL-28, in the experiment on SK-OV-3, with SW-620, with U-251 and in the experiment with UACC-62 was > 100 µM (inactive) each time.
In the case of `NC(=O)/C=C/c1c[nH]c2nccnc12`, the GI50 was 3.08 µM (inactive) with CAKI-1; 3.44 µM (inactive) in the experiment with DU-145; 1.14 µM (inactive) with HCC 2998; 1.59 µM (inactive) with HCT-116; 3.27 µM in the experiment with HCT-15; 2.68 µM (inactive) in the experiment with HT-29. The GI50 in the experiment with MCF7 is 3.27 µM (inactive); in the experiment on MDA-N, 3.81 µM (inactive); with Malme-3M, 0.726 µM (active); in the experiment on NCI-H226, 0.78 µM (active); with NCI-H23, 0.678 µM (active); in the experiment on NCI-H522, 7.13 µM (inactive). For the same compound, the GI50 is 2.86 µM (inactive) in the experiment on OVCAR-8; 0.628 µM (active) in the experiment on SK-MEL-28; 3.95 µM (inactive) in the experiment on SK-OV-3; 1.01 µM (active) in the experiment on SN12C; 0.891 µM (active) in the experiment on SW-620; 4.85 µM (inactive) in the experiment with U-251. For the same compound, the GI50 with UACC-62 was 2.76 µM (inactive).
As to `CCOC(=O)c1nc2ccc(C(F)(F)F)cc2nc1Oc1ccc(C(=O)OC)cc1`, the GI50 with CAKI-1 is > 100 µM (inactive); with DU-145, 55.7 µM (inactive); with HCC 2998, > 100 µM (inactive); with HCT-116 it was > 100 µM (inactive); with HCT-15, greater than 100 µM; in the experiment with HT-29, 81.7 µM (inactive). The GI50 in the experiment on Hs-578T is 33.2 µM (inactive); in the experiment on MCF7, 43.1 µM (inactive); in the experiment on NCI-H226 it was 45.5 µM (inactive); in the experiment with NCI-H23, 97.5 µM (inactive); in the experiment on OVCAR-8 it was > 100 µM (inactive); in the experiment with SK-MEL-28, 86.1 µM (inactive). For the same compound, the GI50 with SK-OV-3 was > 100 µM (inactive); in the experiment on SW-620, > 100 µM (inactive); in the experiment on U-251 it was 36.1 µM (inactive); in the experiment with UACC-62 it was 59.4 µM (inactive).
